Values of other authors, collected in patent US6531463B1, “Method for producing a fat mixture” (Spice Sciences Oy, priority 1998, dated 2003).

Columns and labels:
[1] = system: absorption of cholesterol; conditions: for decrease of the absorption of cholesterol: nine adult patients, 5 days, 500 mg of cholesterol, 1 gram of β-sitosterol or 2 grams of β-sitosteryl oleate
[2] = administered orally
serum cholesterol = conditions: in vivo
cholesterol levels [3] = conditions: added to the feed of cholesterol fed chicken
[4] = system: cholesterol levels, atherogenesis; conditions: added to the feed of cholesterol fed rabbits
[5] = system: absorption of cholesterol
cholesterol levels [6] = conditions: preparations studied in 1950's and 1960's

| Compound | decrease of the absorption of cholesterol [1] [%] | proportion absorbed [2] | lowering of the LDL-cholesterol level (serum cholesterol) [%] | lowering of the total serum cholesterol level (serum cholesterol) | cholesterol levels (cholesterol levels [3]) | atherogenesis [4] | cholesterol levels [4] | reduction of the absorption of cholesterol from food ([1]; 1 gram of β-sitosterol, food containing 500 mg of cholesterol) [%] | absorption of cholesterol ([5]; female rats (Uchita et al.)) | cholesterol balance in plasma and liver ([5]; female rats (Uchita et al.)) | inhibition of absorption of cholesterol ([5]; rats (Vahouny et al.)) [%] | lowering of cholesterol levels (cholesterol levels [6]) |
| --- | --- | --- | --- | --- | --- | --- | --- | --- | --- | --- | --- | --- |
| CCCCCCCC/C=C\CCCCCCCC(=O)O[C@H]1CC[C@@]2(C)C(=CC[C@H]3[C@@H]4CC[C@H]([C@H](C)CC[C@@H](CC)C(C)C)[C@@]4(C)CC[C@@H]32)C1 [β-sitoteryl oleate, β-sitosteryl oleate] | 33 |  |  |  |  |  |  |  |  |  |  |  |
| CC[C@H](CC[C@@H](C)[C@H]1CC[C@H]2[C@@H]3CC=C4C[C@@H](O)CC[C@]4(C)[C@H]3CC[C@]12C)C(C)C [β-sitosterol, stigmasta-5-en-3β-ole] | 42 | less than 5% | 19 | 10-15% | cholesterol levels were lowered | prevented atherogenesis | cholesterol levels were lowered | 42 |  |  |  |  |
| sitosterol |  |  |  |  |  |  |  |  | inhibits absorption of cholesterol | lowers cholesterol balance in plasma and liver | 54 | about 10% |
